Activity calls are given as the source filed them.
Legend:
[1] = test system: Streptococcus sp. 'group A'; experiment: Streptococcus pyogenes SK(-)GAS viability under kanamycin – luminescence, BacTiterGlo, confirmation, counter-screen for streptokinase expression inhibitor project, dose response (AID 1900); type: functional, organism-based
[2] = biological target: T1, Streptokinase A (Streptococcus pyogenes serotype M1, UniProt P10520); experiment: viability-normalized secreted streptokinase activity reduction – plasminogen activation absorbance, OD405, dose response (AID 1914); type: functional, Streptococcus pyogenes M1 GAS;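 also: secreted streptokinase activity via plasminogen activation per viability signal from cell pellet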
T1 sequence (P10520 whole entry): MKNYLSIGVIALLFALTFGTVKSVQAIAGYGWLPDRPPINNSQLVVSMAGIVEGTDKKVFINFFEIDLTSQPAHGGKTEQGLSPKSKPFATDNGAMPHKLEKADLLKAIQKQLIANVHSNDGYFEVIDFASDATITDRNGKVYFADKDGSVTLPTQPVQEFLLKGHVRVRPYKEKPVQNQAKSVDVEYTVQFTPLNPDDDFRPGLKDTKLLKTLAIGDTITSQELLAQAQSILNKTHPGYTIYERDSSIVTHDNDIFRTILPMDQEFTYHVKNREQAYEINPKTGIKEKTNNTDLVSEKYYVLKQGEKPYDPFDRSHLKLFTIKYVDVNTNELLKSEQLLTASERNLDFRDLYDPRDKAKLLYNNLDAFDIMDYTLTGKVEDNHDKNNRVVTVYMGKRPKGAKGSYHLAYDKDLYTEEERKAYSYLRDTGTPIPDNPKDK

[3] = test system: Streptococcus; experiment: GAS UMAA2166 growth inhibition – luminescence, BacTiterGlo, counter-screen for streptokinase expression inhibitor project, dose response (AID 1915); type: functional, organism-based;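 also: potency for reduction of bacterial viability or growth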
[4] = biological target: Troponin, cardiac muscle (Homo sapiens, UniProt P19429+P45379+P63316); experiment: Fluorescence-based biochemical high throughput dose response assay for activators of the calcium sensitivity of cardiac Regulated Thin Filaments (RTF). [Related pubchem assays (depositor defined):AID493008, AID493018, AID504382, AID504383]; type: protein-complex assay
[5] = biological target: G-protein coupled receptor 55 (Homo sapiens, UniProt Q9Y2T6); experiment: inhibition of LPI-stimulated GPR55 beta-arrestin translocation – imaging, U2OS, beta-arrestin-GFP, LPI agonist, primary screen (AID 2013); type: functional;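 also: antagonist potency measured as reduced agonist-driven arrestin aggregation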
[6] = biological target: T2, Voltage-gated N-type calcium channel alpha-1B subunit/Amyloid beta A4 precursor protein-binding family A member 1 (Homo sapiens, UniProt Q00975+Q02410); type: protein assay
[7] = biological target: T2, Voltage-gated N-type calcium channel alpha-1B subunit/Amyloid beta A4 precursor protein-binding family A member 1; type: protein assay; remark: listed apart in the source
[8] = CCR5-tropic HIV-1 fusion blockers – cell-based, CCR5-tropic Env, dose response (AID 2279); type: functional
[9] = biological target: FAD-linked sulfhydryl oxidase ALR (Homo sapiens, UniProt P55789); experiment: ALR-catalysed DTT oxidation blockers – biochemical, H2O2 detection, luminescence, cherry-pick, dose response (AID 493248)
[10] = biological target: T3, Corticotropin-releasing factor receptor 2/Corticotropin-releasing factor-binding protein (Homo sapiens, UniProt P24387+Q13324); experiment: Dose Response confirmation of uHTS hits for small molecule antagonists of the CRF-binding protein and CRF-R2 receptor complex.; type: functional; settings: read-out: IC50_Mean
T3 sequence (Q13324 whole entry): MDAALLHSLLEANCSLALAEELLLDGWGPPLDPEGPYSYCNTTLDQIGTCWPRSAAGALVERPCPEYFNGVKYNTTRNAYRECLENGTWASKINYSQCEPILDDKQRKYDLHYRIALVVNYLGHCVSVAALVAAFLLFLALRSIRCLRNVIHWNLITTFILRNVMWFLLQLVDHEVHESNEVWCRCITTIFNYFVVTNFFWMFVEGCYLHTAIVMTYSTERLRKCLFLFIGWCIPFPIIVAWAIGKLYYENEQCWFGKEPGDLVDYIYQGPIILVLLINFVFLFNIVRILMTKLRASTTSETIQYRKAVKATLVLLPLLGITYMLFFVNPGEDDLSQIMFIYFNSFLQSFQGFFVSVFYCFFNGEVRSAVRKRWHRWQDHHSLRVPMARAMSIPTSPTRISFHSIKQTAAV
T3 sequence (P24387 whole entry): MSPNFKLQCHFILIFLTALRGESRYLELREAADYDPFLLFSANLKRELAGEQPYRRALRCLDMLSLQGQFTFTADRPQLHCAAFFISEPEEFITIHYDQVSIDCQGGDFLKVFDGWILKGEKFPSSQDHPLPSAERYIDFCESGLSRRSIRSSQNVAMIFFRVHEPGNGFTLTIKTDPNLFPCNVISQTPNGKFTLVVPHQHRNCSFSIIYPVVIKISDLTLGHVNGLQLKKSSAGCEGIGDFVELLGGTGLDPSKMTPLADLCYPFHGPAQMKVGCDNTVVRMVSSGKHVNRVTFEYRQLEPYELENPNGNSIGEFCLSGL

[11] = biological target: T3, Corticotropin-releasing factor receptor 2/Corticotropin-releasing factor-binding protein; experiment: activators of CRF receptor 2 with binding protein – uHTS hits, confirmation (AID 602473); type: functional; settings: read-out: EC50_Mean
[12] = blockers of CRF-binding protein–CRF-R2 complex – cell-based, uHTS hits, 384-well, dose response (AID 651639); type: functional, Homo sapiens; settings: read-out: IC50_Mean
[13] = biological target: T4, Long-chain-fatty-acid--AMP ligase FadD28 (Mycobacterium tuberculosis, UniProt P9WQ59); experiment: Fluorescence polarization aasay to screen for inhibitors that compete for the binding of FadD28 to a bisubstrate Measured in Biochemical System Using Plate Reader - 2147-01_Inhibitor_Dose_CherryPick_Activity.; type: functional, Mycobacterium tuberculosis H37Rv
T4 sequence (P9WQ59 whole entry): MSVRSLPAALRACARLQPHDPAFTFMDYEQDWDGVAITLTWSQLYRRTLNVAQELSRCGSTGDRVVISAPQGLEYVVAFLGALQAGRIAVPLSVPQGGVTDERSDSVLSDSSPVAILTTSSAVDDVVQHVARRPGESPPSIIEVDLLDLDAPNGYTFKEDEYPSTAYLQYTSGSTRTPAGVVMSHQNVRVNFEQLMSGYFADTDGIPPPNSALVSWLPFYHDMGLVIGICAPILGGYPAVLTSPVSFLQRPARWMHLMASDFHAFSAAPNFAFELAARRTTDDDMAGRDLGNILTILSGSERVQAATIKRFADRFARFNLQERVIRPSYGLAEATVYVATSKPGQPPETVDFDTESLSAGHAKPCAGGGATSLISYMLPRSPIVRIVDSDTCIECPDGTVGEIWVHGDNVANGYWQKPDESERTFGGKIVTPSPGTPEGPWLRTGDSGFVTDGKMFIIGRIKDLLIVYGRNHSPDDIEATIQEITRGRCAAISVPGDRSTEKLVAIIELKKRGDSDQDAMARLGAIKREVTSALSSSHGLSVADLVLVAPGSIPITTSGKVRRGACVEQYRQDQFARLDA

[14] = biological target: Cytochrome P450 2C9 (Homo sapiens, UniProt P11712); settings: Potency
[15] = biological target: T5, Bcl-2-related protein A1 (Mus musculus, UniProt Q07440); type: functional;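 also: confirmatory dose–response counterscreen on Bfl-1, used to check hits from a UBC13 polyubiquitin inhibitor campaign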
T5 sequence (Q07440 whole entry): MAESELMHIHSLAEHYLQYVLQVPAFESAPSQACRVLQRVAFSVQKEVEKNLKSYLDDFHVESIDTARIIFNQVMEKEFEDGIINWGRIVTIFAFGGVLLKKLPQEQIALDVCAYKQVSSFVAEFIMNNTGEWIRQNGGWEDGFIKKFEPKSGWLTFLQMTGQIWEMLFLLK

[16] = biological target: T6, Ubiquitin-conjugating enzyme E2 N (Homo sapiens, UniProt P61088); type: functional
T6 sequence (P61088 whole entry): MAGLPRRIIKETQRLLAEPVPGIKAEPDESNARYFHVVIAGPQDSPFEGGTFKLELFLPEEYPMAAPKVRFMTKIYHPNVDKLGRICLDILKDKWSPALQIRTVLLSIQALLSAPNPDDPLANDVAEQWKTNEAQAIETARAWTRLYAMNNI

[17] = biological target: T6, Ubiquitin-conjugating enzyme E2 N; type: functional; remark: listed apart in the source
[18] = Counterscreen for IDE inhibitors: Luminescence-based cell-based high throughput dose response assay to identify compounds that are cytotoxic to HEK cells. [Related pubchem assays: 434962 (Primary screen (IDE inhibitors in singlicate)), 449730 (Counterscreen (Cytotoxicity in triplicate)), 435028 (Confirmation (IDE inhibitors in triplicate)) …; type: functional; settings: HEK293
[19] = biological target: T7, Insulin-degrading enzyme (Homo sapiens, UniProt P14735); experiment: Dose Response: Fluorescence polarization-based cell-based high throughput dose response assay for inhibitors of insulin-degrading enzyme (IDE). [Related pubchem assays: 434962 (Primary screen (IDE inhibitors in singlicate)), 449730 (Counterscreen (Cytotoxicity in triplicate)), 435028 (Confirmation (IDE inhibitors in triplicate)), 434984 (Summary …; type: functional
T7 sequence (P14735 whole entry): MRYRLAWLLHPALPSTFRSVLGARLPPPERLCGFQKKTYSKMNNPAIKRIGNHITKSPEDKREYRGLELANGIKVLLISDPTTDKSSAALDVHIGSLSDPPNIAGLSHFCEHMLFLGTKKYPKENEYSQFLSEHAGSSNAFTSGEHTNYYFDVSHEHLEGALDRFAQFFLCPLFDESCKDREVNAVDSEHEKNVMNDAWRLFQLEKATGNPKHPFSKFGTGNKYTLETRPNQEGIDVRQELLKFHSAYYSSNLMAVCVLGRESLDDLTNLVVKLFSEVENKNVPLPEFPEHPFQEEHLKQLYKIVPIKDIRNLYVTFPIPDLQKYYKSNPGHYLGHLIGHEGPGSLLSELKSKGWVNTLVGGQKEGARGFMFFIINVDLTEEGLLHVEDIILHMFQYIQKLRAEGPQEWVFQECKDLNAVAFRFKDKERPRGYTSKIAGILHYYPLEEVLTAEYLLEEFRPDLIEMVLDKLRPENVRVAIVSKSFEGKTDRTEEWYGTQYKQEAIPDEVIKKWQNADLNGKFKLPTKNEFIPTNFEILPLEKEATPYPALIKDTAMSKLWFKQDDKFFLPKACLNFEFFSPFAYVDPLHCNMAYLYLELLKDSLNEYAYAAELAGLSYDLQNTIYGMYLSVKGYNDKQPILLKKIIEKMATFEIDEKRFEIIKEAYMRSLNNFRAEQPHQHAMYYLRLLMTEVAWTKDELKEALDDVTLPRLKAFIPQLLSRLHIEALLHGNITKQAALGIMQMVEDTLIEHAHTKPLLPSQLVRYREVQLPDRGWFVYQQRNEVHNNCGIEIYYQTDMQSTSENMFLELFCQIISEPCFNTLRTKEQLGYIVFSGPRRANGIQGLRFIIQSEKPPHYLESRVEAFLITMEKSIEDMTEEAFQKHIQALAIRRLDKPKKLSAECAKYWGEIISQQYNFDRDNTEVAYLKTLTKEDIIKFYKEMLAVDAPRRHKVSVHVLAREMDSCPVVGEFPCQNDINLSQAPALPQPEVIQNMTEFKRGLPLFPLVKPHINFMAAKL

[20] = biological target: T2, Voltage-gated N-type calcium channel alpha-1B subunit/Amyloid beta A4 precursor protein-binding family A member 1; experiment: disruptors of Mint-PDZ/N-type channel peptide interaction – biochemical, HTRF, set 2, SAR follow-up (AID 434980); type: functional
[21] = biological target: T2, Voltage-gated N-type calcium channel alpha-1B subunit/Amyloid beta A4 precursor protein-binding family A member 1; experiment: disruptors of Mint-PDZ/N-type channel peptide interaction – biochemical, HTRF, SAR follow-up (AID 2489); type: functional
[22] = biological target: T8, SUMO-activating enzyme (Homo sapiens, UniProt Q9UBT2); experiment: blockers of UBC9-mediated SUMO conjugation – biochemical, AlphaScreen, SUMOylation inhibitor project, confirmation (AID 2018); type: functional
[23] = biological target: T8, SUMO-activating enzyme; experiment: blockers of SAE1/SAE2–UBC9 SUMO transfer – biochemical, HTRF, uHTS, primary screen (AID 2006); type: protein-complex assay

G-protein coupled receptor 55, sequence (Q9Y2T6 whole entry): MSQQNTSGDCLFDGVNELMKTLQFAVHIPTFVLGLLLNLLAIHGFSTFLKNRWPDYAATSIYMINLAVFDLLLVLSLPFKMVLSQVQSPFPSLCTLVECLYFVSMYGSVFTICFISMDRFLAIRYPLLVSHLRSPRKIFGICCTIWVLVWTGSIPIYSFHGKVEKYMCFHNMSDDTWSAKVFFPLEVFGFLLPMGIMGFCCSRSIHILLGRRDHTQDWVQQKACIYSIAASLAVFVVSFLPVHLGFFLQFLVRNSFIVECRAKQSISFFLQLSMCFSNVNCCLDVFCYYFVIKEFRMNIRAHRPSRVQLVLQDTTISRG
T2 sequence (Q00975 whole entry): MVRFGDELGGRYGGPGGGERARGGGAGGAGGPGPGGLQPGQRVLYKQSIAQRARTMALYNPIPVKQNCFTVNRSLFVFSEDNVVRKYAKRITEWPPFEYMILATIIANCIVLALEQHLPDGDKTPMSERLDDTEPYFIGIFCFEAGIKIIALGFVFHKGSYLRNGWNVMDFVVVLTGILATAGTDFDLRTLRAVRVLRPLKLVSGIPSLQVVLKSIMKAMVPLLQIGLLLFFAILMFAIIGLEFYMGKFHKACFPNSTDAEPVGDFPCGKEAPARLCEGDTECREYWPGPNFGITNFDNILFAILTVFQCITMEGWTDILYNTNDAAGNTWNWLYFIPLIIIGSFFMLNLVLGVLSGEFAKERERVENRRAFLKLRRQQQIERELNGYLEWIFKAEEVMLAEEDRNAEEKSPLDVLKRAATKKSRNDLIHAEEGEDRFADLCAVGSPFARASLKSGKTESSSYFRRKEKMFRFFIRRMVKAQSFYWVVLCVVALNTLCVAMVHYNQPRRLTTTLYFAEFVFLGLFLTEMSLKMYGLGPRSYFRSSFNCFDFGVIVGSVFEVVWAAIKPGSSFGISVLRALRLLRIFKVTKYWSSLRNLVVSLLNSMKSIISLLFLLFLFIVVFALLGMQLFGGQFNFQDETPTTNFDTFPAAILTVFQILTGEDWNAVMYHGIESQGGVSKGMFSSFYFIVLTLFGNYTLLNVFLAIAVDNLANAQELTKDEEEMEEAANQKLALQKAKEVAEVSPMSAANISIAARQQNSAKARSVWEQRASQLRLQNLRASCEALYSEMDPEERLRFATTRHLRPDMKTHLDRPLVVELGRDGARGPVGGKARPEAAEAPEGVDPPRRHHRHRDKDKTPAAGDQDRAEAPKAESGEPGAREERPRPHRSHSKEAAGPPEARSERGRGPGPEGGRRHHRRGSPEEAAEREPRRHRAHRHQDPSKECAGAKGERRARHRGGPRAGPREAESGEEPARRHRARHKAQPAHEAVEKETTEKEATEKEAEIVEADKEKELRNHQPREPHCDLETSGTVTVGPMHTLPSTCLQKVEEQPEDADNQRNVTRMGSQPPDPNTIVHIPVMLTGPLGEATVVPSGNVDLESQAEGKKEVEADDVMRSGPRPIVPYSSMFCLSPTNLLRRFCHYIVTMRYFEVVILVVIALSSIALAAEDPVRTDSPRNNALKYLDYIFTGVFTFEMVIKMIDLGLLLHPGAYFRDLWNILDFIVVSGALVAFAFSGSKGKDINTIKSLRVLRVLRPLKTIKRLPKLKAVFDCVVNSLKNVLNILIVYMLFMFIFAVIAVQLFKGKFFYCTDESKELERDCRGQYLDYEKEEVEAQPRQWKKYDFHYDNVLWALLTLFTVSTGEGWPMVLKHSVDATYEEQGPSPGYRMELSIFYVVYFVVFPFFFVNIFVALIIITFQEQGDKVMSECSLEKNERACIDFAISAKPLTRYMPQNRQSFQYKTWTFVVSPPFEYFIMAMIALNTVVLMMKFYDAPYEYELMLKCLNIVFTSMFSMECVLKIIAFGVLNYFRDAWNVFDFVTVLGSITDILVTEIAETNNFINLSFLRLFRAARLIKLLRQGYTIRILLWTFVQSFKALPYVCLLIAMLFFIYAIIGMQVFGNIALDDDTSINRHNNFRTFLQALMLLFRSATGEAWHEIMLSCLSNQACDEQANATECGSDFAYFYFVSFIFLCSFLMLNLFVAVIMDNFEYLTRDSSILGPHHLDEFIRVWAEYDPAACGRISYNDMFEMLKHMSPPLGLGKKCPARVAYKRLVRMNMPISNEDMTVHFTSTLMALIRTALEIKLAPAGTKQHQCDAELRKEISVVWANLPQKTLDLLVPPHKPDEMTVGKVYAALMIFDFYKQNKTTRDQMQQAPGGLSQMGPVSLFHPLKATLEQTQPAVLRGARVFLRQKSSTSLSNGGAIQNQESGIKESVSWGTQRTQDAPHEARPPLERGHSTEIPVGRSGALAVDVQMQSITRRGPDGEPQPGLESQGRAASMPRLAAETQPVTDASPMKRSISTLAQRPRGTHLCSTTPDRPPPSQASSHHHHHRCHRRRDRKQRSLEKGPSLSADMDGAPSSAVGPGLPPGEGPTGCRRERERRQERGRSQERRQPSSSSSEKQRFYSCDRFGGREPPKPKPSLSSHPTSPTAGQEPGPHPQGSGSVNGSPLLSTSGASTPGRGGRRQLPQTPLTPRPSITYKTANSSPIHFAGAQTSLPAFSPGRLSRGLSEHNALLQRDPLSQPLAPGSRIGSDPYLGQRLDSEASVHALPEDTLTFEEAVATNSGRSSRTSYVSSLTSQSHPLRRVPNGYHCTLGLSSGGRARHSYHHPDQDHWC
T2 sequence (Q02410 whole entry): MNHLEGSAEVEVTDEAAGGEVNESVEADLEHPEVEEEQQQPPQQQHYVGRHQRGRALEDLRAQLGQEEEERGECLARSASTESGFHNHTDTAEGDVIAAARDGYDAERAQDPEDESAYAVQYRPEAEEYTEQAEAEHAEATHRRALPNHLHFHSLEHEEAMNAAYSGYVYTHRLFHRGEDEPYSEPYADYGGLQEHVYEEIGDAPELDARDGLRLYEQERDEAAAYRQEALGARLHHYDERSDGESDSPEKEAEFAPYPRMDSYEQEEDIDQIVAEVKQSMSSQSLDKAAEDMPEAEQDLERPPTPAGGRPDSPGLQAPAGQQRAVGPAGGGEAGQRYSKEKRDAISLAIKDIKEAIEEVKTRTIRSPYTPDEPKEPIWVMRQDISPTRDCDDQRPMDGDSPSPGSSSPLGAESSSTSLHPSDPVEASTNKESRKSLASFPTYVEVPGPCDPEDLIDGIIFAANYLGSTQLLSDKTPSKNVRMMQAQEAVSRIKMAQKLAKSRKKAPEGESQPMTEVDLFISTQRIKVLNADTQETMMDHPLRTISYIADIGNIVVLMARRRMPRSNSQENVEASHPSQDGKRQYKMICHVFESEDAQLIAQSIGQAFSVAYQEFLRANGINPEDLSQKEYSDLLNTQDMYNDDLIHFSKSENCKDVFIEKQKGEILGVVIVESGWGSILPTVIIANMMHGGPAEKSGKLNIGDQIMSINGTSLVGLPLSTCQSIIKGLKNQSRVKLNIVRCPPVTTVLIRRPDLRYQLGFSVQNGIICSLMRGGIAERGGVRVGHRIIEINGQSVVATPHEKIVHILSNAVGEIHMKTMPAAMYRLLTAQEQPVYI
T8 sequence (Q9UBE0 whole entry): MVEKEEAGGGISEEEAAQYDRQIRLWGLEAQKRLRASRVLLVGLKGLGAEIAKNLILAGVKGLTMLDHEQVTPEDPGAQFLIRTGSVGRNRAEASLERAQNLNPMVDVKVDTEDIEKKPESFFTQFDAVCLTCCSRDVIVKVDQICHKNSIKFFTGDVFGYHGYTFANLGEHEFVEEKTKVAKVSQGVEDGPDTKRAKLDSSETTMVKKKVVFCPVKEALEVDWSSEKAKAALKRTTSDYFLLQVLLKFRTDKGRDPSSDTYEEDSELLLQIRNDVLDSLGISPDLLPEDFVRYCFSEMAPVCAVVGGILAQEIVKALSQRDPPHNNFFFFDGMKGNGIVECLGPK
T8 sequence (Q9UBT2 whole entry): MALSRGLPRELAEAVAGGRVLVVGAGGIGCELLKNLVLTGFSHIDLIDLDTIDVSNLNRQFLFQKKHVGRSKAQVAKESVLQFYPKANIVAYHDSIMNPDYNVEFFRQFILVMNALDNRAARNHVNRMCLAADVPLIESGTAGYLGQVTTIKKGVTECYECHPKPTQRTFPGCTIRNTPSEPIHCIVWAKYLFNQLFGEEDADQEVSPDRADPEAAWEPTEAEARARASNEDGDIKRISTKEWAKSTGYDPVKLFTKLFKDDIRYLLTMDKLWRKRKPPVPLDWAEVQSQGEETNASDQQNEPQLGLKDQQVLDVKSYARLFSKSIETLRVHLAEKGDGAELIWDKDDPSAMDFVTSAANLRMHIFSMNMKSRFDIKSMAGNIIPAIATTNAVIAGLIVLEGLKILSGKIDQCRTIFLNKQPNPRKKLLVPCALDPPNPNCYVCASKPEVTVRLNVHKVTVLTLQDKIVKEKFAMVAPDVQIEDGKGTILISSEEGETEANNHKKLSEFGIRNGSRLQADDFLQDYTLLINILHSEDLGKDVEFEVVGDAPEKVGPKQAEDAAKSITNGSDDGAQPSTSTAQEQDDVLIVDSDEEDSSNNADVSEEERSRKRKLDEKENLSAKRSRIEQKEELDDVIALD
FAD-linked sulfhydryl oxidase ALR, sequence (P55789 whole entry): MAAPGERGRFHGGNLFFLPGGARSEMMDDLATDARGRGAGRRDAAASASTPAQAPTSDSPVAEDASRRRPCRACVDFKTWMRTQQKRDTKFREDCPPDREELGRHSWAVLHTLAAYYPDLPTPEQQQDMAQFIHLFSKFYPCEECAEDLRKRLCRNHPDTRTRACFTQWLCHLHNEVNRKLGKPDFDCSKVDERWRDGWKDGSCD

Cc1cc(/C=C2\SC(=S)N(C)C2=O)c(C)n1-c1ccccc1O
EC50 [1]: 8.37 µM (active) | EC50 [2]: 17.8 µM (active) | EC50 [3]: 16.1 µM (active) | EC50 [4]: 4.96 µM (active)

COc1cc(Br)c(-c2sc(Nc3ccccc3)n[n+]2-c2ccc(F)cc2)cc1OC
IC50 [5]: 11.9 µM (inactive)

Cc1ccc(/C=C2\SC(=S)N(CCC(=O)NNC(=O)c3cccc(O)c3)C2=O)cc1
IC50 [6]: 16 µM (active) | IC50 [7]: > 50 µM (inactive)

O=C(O)c1ccccc1NC(=O)c1ccccc1Nc1ccccc1
IC50 [8]: > 50 µM (active) | AC50 [9]: 9.47 µM (active) | IC50 [10]: 5.46 µM (active) | EC50 [11]: > 53 µM (inactive) | IC50 [12]: > 20 µM (inactive) | AC50 [13]: > 100 µM (inactive)

CC(C)C[C@@H](CC(=O)N[C@H](CC(=O)N[C@@H]1CCNC[C@H]1C(=O)N[C@H](CC(=O)N[C@@H](CCC(=O)O)CC(=O)O)Cc1c[nH]c2ccccc12)C(C)C)NC(=O)[C@@H]1CCCC[C@H]1N
AC50 [14]: 25.1 µM (inconclusive)

Cc1[nH]c(=S)c(C#N)c(-c2ccccc2)c1C(=O)Nc1ccccc1
IC50 [15]: > 20 µM (inactive) | IC50 [16]: 13.9 µM (active) | IC50 [17]: > 20 µM (inactive)

CC12CNCC(C)(CN(C(c3ccccc3)c3ccccc3)C1)C2
IC50 [5]: 5.62 µM (active)

COc1ccccc1N1CCN(C(=O)c2cc(N3C(=O)C4C5CCC(C5)C4C3=O)ccc2Cl)CC1 (stereo not drawn)
IC50 [18]: 27.8 µM (not active) | IC50 [19]: > 55.9 µM (not active)

O=C(/C=C/c1ccco1)NC(=S)Nc1ccccc1N1CCOCC1
IC50 [5]: 4.57 µM (active)

O=C(CCNC(=O)c1ccccc1Cl)Nc1nc2ccccc2s1
IC50 [15]: > 20 µM (inactive) | IC50 [16]: 6.15 µM (active) | IC50 [17]: 8.02 µM (active)

Cc1ccc(Nc2cnn(C34CC5CC(CC(CC(=O)O)(C5)C3)C4)c(=O)c2Cl)cc1C
IC50 [18]: > 55.7 µM (not active) | IC50 [19]: 18.8 µM (not active)

CC(=O)Oc1ccc(N2C(=O)C3C4C=CC(CC4)C3C2=O)cc1 (stereo not drawn)
IC50 [20]: > 56.8 µM (inactive) | IC50 [21]: > 56.8 µM (inactive)

CCn1cc(C(=O)NCCC(=O)NCCO)c(=O)c2cc3c(cc21)OCO3
EC50 [4]: > 71.4 µM (inactive)

CCOC(=O)C1=C(C)N=c2s/c(=C\c3ccc(OCC(=O)O)cc3)c(=O)n2C1c1ccc(OC(C)C)cc1 (stereo not drawn)
IC50 [22]: 10.1 µM (active) | IC50 [8]: 35.2 µM (active) | IC50 [23]: 26 µM (active)

CCN(CC)c1ccc(/C=c2\sc3nnc(-c4ccccc4Cl)n3c2=O)cc1
EC50 [4]: 0.191 µM (active)
